A short description of data set [1]: Toxicity in human RBC assessed as drug level causing hemolysis. In kind it is cell-based. The note with it: erythrocyte.
In data set [2] the target is T1, Malonyl CoA-acyl carrier protein transacylase (Staphylococcus aureus) (UniProt Q93QD4).
T1 sequence (whole entry): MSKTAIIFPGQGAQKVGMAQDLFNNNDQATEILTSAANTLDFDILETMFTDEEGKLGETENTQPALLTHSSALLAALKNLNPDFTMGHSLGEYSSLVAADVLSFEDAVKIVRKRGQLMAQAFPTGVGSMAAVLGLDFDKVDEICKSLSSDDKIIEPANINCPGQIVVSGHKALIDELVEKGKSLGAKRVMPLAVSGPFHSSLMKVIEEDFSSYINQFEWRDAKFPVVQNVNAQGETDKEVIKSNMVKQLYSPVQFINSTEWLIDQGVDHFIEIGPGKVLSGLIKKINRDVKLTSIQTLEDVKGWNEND
The experiment in a line: Inhibition of Staphylococcus aureus FabD assessed as reduced malonyl-ACP levels.

The nature of data set [3]: Inhibition of Staphylococcus aureus FabH assessed as reduced accumulation of long chain beta-ketoacyl-ACP by FabF/FabH PAGE elongation assay.
The nature of data set [4]: Inhibition of Staphylococcus aureus FabF assessed as reduced accumulation of acetoacetyl-ACP by FabF/FabH PAGE elongation assay.
Data set [5] relates to Staphylococcus aureus. Kind of data set: Antibacterial activity against methicillin-sensitive Staphylococcus aureus. In kind it is functional.
Data set [6] has as its system Staphylococcus aureus. Kind of data set: Antibacterial activity against Staphylococcus aureus in presence of serum. Type of data set: functional.
Data set [7] relates to Staphylococcus aureus. The experiment in a line: Antibacterial activity against methicillin-resistant Staphylococcus aureus. Type of data set: functional.
Data set [8] deals with Staphylococcus aureus. The experiment in a line: Antibacterial activity against methicillin and macrolide-resistant Staphylococcus aureus. Type of data set: functional.
Data set [9] concerns Staphylococcus aureus. Kind of data set: Antibacterial activity against methicillin and linezolid-resistant Staphylococcus aureus. In kind it is functional.
The subject of data set [10] is Staphylococcus aureus. Kind of data set: Antibacterial activity against vancomycin-intermediate resistant Staphylococcus aureus. Type of data set: functional.
For the next data set, the system named is Enterococcus faecalis. Kind of data set: Antibacterial activity against macrolide-resistant Enterococcus faecalis. Type of data set: functional.
The next data set deals with Enterococcus faecium. The experiment in a line: Antibacterial activity against vancomycin-resistant Enterococcus faecium. In kind it is functional.
Data set [11] has as its system Streptococcus pneumoniae. The experiment in a line: Antibacterial activity against Streptococcus pneumoniae. Type of data set: functional.
Data set [12] deals with Escherichia coli. Kind of data set: Antibacterial activity against wild type Escherichia coli. In kind it is functional.
Data set [13] relates to Escherichia coli. The experiment in a line: Antibacterial activity against efflux negative-tolC mutant containing Escherichia coli. Type of data set: functional.
Data set [14] has as its system Staphylococcus aureus. The experiment in a line: Antibacterial activity against Staphylococcus aureus expressing antisense fabF assessed as drug level causing >5 mm zone of inhibition after 18 hrs by agar diffusion two plate differential sensitivity antisense assay. Type of data set: functional. Background: Agar diffusion results depend on both activity and mobility in agar.

Another data set has as its system HeLa. Kind of data set: Cytotoxicity against human HeLa cells by MTT assay. Type of data set: functional, cell-based. On the technique in general: Tetrazolium dyes change colour on reduction, which living cells bring about.
The next data set relates to Candida albicans. Kind of data set: Antifungal activity against Candida albicans. In kind it is functional.
The test system of data set [15] is Staphylococcus aureus. Kind of data set: Antibacterial activity against methicillin-sensitive Staphylococcus aureus infected mouse kidney assessed as log reduction of bacterial count at 150 ug/hr after 24 hrs. In kind it is functional.
The next data set is filed under the species Mus musculus. Kind of data set: Toxicity in methicillin-sensitive Staphylococcus aureus infected mouse model at 150 ug/hr after 24 hrs. Type of data set: organism-based. The conditions noted are these: in vivo.
The test system of data set [16] is Staphylococcus aureus. The experiment in a line: Inhibition of fatty acid synthesis in Staphylococcus aureus in whole cell activity assay. Type of data set: functional, organism-based.
The subject of data set [17] is Streptococcus pneumoniae. The experiment in a line: Inhibition of fatty acid synthesis in Streptococcus pneumoniae in whole cell activity assay. In kind it is functional, organism-based.
Data set [18] is described as follows: Inhibition of Staphylococcus aureus FabF by direct binding assay.
A short description of data set [19]: Inhibition of Staphylococcus aureus FabH by direct binding assay.
Data set [20] is described as follows: Inhibition of Staphylococcus aureus FabH assessed as reduced accumulation of acetoacetyl-ACP by FabF/FabH PAGE elongation assay.
Data set [21] relates to Staphylococcus aureus. Kind of data set: Inhibition of DNA biosynthesis in Staphylococcus aureus upto 50 ug/ml in whole cell activity assay. In kind it is functional, organism-based.
The test system of data set [22] is Staphylococcus aureus. Kind of data set: Inhibition of RNA biosynthesis in Staphylococcus aureus upto 50 ug/ml in whole cell activity assay. In kind it is functional, organism-based.
Data set [23] deals with Staphylococcus aureus. Kind of data set: Inhibition of protein biosynthesis in Staphylococcus aureus upto 50 ug/ml in whole cell activity assay. In kind it is functional, organism-based.
Data set [24] concerns Staphylococcus aureus. The experiment in a line: Inhibition of cell wall biosynthesis in Staphylococcus aureus upto 50 ug/ml in whole cell activity assay. Type of data set: functional, organism-based.
Data set [25] is described as follows: Inhibition of Staphylococcus aureus FabF assessed as reduced accumulation of long chain beta-ketoacyl-ACP by FabF/FabH PAGE elongation assay.
Data set [26] relates to Staphylococcus aureus. The experiment in a line: Inhibition of Staphylococcus aureus FabF assessed as reduced accumulation of long chain beta-ketoacyl-ACP at 20 ug/ml by FabF/FabH PAGE elongation assay.
In data set [27] the test system is Staphylococcus aureus. Kind of data set: Inhibition of Staphylococcus aureus FabF assessed as reduced accumulation of long chain beta-ketoacyl-ACP at 2 ug/ml by FabF/FabH PAGE elongation assay.

In brackets after ≈: the same amount, converted by molar mass. Activity calls are given as the source filed them. The rule behind the calls is not given here.

On to `O=C(N[C@H](CO)[C@H](O)c1ccc([N+](=O)[O-])cc1)C(Cl)Cl` [CHLORAMPHENICOL], for which the Activity in [1] was > 64 µg/mL.

`C=C1C[C@@]23C=CC(=O)[C@@](C)(CCC(=O)Nc4c(O)ccc(C(=O)O)c4O)[C@@H]2C[C@@H]1CC3` [PLATENCIN]: the outcome in data set [2] was inactive. In addition, the IC50 (as a rule, the concentration needed to halve the response being measured) was 9.17 µM in data set [3]; 4.58 µM in data set [4]; > 100 µg/mL with HeLa; 0.19 µg/mL (≈ 0.447 µM) in the data set with Staphylococcus aureus [16]; 2.7 µg/mL (≈ 6.35 µM) in the data set with Streptococcus pneumoniae [17]; 0.113 µM in [18]. The same compound gave a concentration for half-maximal inhibition (IC50) in data set [19] of 16.2 µM. In addition, the MIC (in general, the lowest concentration that inhibits growth of the organism) in the data set on Staphylococcus aureus [5] worked out at 0.5 µg/mL (≈ 1.18 µM); in the data set with Staphylococcus aureus [6], 8 µg/mL; in the data set on Staphylococcus aureus [7], 1 µg/mL (≈ 2.35 µM); in the data set on Staphylococcus aureus [8], 1 µg/mL (≈ 2.35 µM); in the data set on Staphylococcus aureus [9], 1 µg/mL (≈ 2.35 µM); in the data set on Staphylococcus aureus [10], 0.5 µg/mL (≈ 1.18 µM). For the same compound, the MIC against Enterococcus faecalis was 2 µg/mL (≈ 4.7 µM); in the data set with Enterococcus faecium it was < 0.06 µg/mL; in the data set on Streptococcus pneumoniae [11], 4 µg/mL (≈ 9.4 µM); in the data set with Escherichia coli [12], > 64 µg/mL; in the data set with Escherichia coli [13], 2 µg/mL (≈ 4.7 µM); with Candida albicans, > 64 µg/mL. For the same compound, the Activity was 0.002 µg with Staphylococcus aureus [14], > 67 µg/mL in data set [1], 3 with Staphylococcus aureus [15] and “Non-toxic” in the data set filed under Mus musculus.

Take `CC(=O)NC[C@H]1CN(c2ccc(N3CCOCC3)c(F)c2)C(=O)O1` [LINEZOLID]: the MIC against Staphylococcus aureus [9] was 32 µg/mL (≈ 94.9 µM); in the data set with Enterococcus faecium it was 2 µg/mL (≈ 5.93 µM); in the data set with Escherichia coli [12], > 64 µg/mL; against Escherichia coli [13] it was 32 µg/mL (≈ 94.9 µM); in the data set on Candida albicans, > 64 µg/mL. Moreover, in the data set with HeLa, the IC50 is > 100 µg/mL. In data set [1], the Activity is > 67 µg/mL.

For `CC12C[C@@]34C=CC(=O)[C@@](C)(CCC(=O)Nc5c(O)ccc(C(=O)O)c5O)C3[C@H](CC1C4)O2` (stereo partly specified) [PLATENSIMYCIN], the IC50 in [20] was 247 µM; in the data set with HeLa, > 1000 µg/mL; in the data set on Staphylococcus aureus [16], 0.1 µg/mL (≈ 0.227 µM); with Streptococcus pneumoniae [17] it was 0.8 µg/mL (≈ 1.81 µM); in data set [19] it was 67 µM; in data set [25], 0.29 µM. For the same compound, the result (in data set [2]; with Staphylococcus aureus [21]; with Staphylococcus aureus [22]; with Staphylococcus aureus [23]; in the data set with Staphylococcus aureus [24]) was inactive. Besides, the MIC was 0.5 µg/mL (≈ 1.13 µM) in the data set on Staphylococcus aureus [5]; 2 µg/mL in the data set on Staphylococcus aureus [6]; 0.5 µg/mL (≈ 1.13 µM) in the data set on Staphylococcus aureus [7]; 0.5 µg/mL (≈ 1.13 µM) in the data set on Staphylococcus aureus [8]; 1 µg/mL (≈ 2.27 µM) with Staphylococcus aureus [9]; 0.5 µg/mL (≈ 1.13 µM) in the data set on Staphylococcus aureus [10]. Besides, the MIC against Enterococcus faecalis was 1 µg/mL (≈ 2.27 µM); in the data set on Enterococcus faecium, 0.1 µg/mL (≈ 0.227 µM); against Streptococcus pneumoniae [11] it was 1 µg/mL (≈ 2.27 µM); in the data set with Escherichia coli [12] it was > 64 µg/mL; against Escherichia coli [13], 16 µg/mL (≈ 36.2 µM); in the data set on Candida albicans, > 64 µg/mL. For the same compound, the Activity in the data set on Staphylococcus aureus [14] is 0.004 µg; in data set [1] it was > 67 µg/mL.

Take `O=C(O)c1cc2cc(OCc3c(Cl)cccc3Cl)ccc2n1Cc1cc2c(cc1Cl)OCO2`: in data set [20], the IC50 came to 3.96 µM. The inhibition (commonly how much of the control response was suppressed) turned out to be 90% in the data set with Staphylococcus aureus [26] and 50% with Staphylococcus aureus [27].

Regarding `C[C@@H]1[C@H](O)[C@@H](C)/C=C/C=C/C=C/C=C/C=C/C=C/C=C/[C@H](O[C@@H]2O[C@H](C)[C@@H](O)[C@H](N)[C@@H]2O)C[C@@H]2O[C@](O)(C[C@@H](O)C[C@@H](O)[C@H](O)CC[C@@H](O)C[C@@H](O)CC(=O)O[C@H]1C)C[C@H](O)[C@H]2C(=O)O` [AMPHOTERICIN B], the Activity in [1] turned out to be 2 µg/mL.

For the origin of these results see ChEMBL document CHEMBL1142219, “Discovery of platencin, a dual FabF and FabH inhibitor with in vivo antibiotic properties” (Proc Natl Acad Sci U S A, 2007).
